# Several values for one entry are separate records, joined by “and”; a condition that tells them apart may be missing. Equal values may be shown once.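 Dose response: 5 concentrations. Exposure: 48 h. Format: 96-well plates. Endpoint: linear interpolation; highest concentration if not reached. GI50 is the concentration that inhibits growth by half. TGI: concentration producing complete growth inhibition.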
# Tested on: SK-MEL-2 melanoma
# Experiment: inhibition of tumour cell growth, NCI panel, 48 h
SMILES,TGI [µM],GI50 [µM]
CC(=O)CCn1ncc(Cl)c(Cl)c1=O,28.4,
CO/N=C(/C)c1cccc(Nc2cc(-n3nnc4ccccc43)nc3ccccc23)c1,> 100,> 100
CN1CC(=O)N2Cc3ccccc3-n3cccc3C2C1 (configuration not stated),> 100,
NC(=S)N/N=C/C(=O)O,> 100,> 100

# Tested on: SW-620 colon
# Experiment: inhibition of tumour cell growth, NCI panel, 48 h
SMILES,TGI,GI50
Clc1ccc2c(c1)[nH]c1c2nc2ccccn21,38.3 µM and 45.3 µM,
CCOC(=O)c1cnc2c(ccc3[nH]n(C)nc32)c1=O,36.8 µM,
NC(=S)N/N=C(\CC1OC(=O)c2ccccc21)c1ccc(Cl)cc1 (configuration not stated),> 100 µM,
COc1ccc2occ(CCC(=O)O)c2c1,> 100 µM,
COC(=O)C(C(=O)c1ccccc1)C(C(=O)C(=O)Nc1ccc(OC)cc1OC)C(=O)C(=O)c1ccc(C)cc1 (configuration not stated),> 100 µM,
CC1(C)COC(C2(C)C(=O)C=C(c3ccccc3)c3ccccc32)=N1 (configuration not stated),> 100 µM,
O=C(Nc1ccn(CCO)c(=O)n1)c1ccccc1,> 100 µM,
O=C1CCC2(c3ccc(Cl)cc3)Nc3ncccc3N12 (configuration not stated),> 100 µM,
COc1ccc(Sc2[nH]c(C(C)=O)c3ccccc23)cc1,26.8 µM,12.5 µM
C#CCOc1cccc(-c2ncc3cc(NC(=O)CCl)ccc3n2)c1,3.25 µM,1.56 µM
CC12C/C(=C\c3ccccc3)C(=O)C3C1CCCC32,> 100 µM,
OC(CC1SCCCS1)c1ccccc1 (configuration not stated),> 100 µM,
CCCCOC(=O)CNC(=O)OC/C=C/C#CC#C/C=C/COC(=O)NCC(=O)OCCCC,> 100 µM,
COc1ccc(OC)c2c1[nH]c(=O)c1c3ccccc3cn21,2.11 µM,0.59 µM
COc1cccc2c1C(=O)c1c(O)c3c(c(O)c1C2=O)C[C@@](O)(C(=O)CO)C[C@@H]3OC1CC(N)CC(C)O1 (some centres not stated),0.434 µM and 1.36 µM,0.0117 µM and 0.0389 µM
O=C1c2ccccc2C(=O)N1CCn1ccc(NC(c2ccccc2)(c2ccccc2)c2ccccc2)nc1=O,> 100 µM,
CC(C)(C)NNC(=O)CCn1[nH]c(=O)c(Cl)c(Cl)c1=O,> 100 µM,
O=CCC1CCCCC1,> 100 µM,
CN(C)CCNC(=O)c1cccc2ccc(-c3ccc(O)cc3)nc12,11.1 µM,

SMILES,TGI,GI50
CCC12CCCN(Cc3ccccc3)C1c1c(n(C)c3ccccc13)CC2 (configuration not stated),> 253 µM,
CSc1nc(=O)n(CCC#N)nc1SC,58.3 µM,
COc1cc(Nc2ncccc2C(=O)NCc2cn(Cc3cccc(Oc4ccccc4)c3)nn2)cc(OC)c1,> 100 µM,3.88 µM
Cc1cc(Nc2ccc(NC(=O)c3ccc(Nc4ccnc5ccccc45)cc3)cc2)nc(N)n1,> 100 µM,1.37 µM
COc1cc(-c2oc(=O)ccc2C#Cc2ccccn2)cc(OC)c1OC,> 100 µM,2.28 µM
COC(=O)C1c2cc3c(cc2C(OC2OC(C)C(OC)C(C)(OC)C2OC)CC1(C)O)C(=O)c1c(O)cc2c(c1C3=O)OC1OC2(C)C(O)C([N+](C)(C)[O-])C1O (configuration not stated),> 23.8 µM,
CC(C)N(C(=O)C12C3C4C1C1C4(C#N)C3C12C#N)C(C)C (configuration not stated),> 100 µM,
O=C1CCC(Cl)=CC2CCCN12 (configuration not stated),> 100 µM,
COc1ccc(/C=C\[N+](=O)[O-])cc1OC,4.9 µM,1.9 µM
c1ccc2cc(-c3cc4ccccc4s3)ccc2c1,> 100 µM,
CC(C)C(CCl)NC(=O)c1cccc(C(=O)N[C@H](CCl)C(C)C)n1 (stereo in doubt),> 100 µM,
NC(=O)/C=C/C(=O)c1c(Cl)cccc1Cl,1.04 µM,0.511 µM
CCC(=O)CC(=O)CCC(=O)Nc1cc(C)ccc1C,> 100 µM,
NC(N)=N/N=C/c1c(-c2ccsc2)nc2sccn12,43.1 µM,18.3 µM
CC(=O)Nc1ccc(S(=O)(=O)N2C(=O)CCC2C(=O)Nc2ccc(Br)cc2)cc1 (configuration not stated),27.6 µM,3.19 µM
CC(=O)CCn1ncc(Cl)c(Cl)c1=O,39 µM,
CO/N=C(/C)c1cccc(Nc2cc(-n3nnc4ccccc43)nc3ccccc23)c1,> 100 µM,34.1 µM
CN1CC(=O)N2Cc3ccccc3-n3cccc3C2C1 (configuration not stated),> 100 µM,
NC(=S)N/N=C/C(=O)O,> 100 µM,> 100 µM

# Reference: PubChem BioAssay (NCI)
